Consider one compound from patent publication US7445931B2, “Compositions and methods for enrichment of neural stem cells using ceramide analogs” (Bresagen, Inc., priority 2002, dated 2008).

One test has as its system sfEBMs in suspension. In words: S18 treatment of sfEBMs in suspension, histology and immunocytochemistry. In kind it is cell-based, human. The protocol: To perform immunostaining on fixed cells or cytospins, the samples were washed in block buffer (3% goat serum, 1% polyvinyl Pyrolidone, 0.3% Triton X-100 in wash buffer) for 30 minutes, and then incubated with the appropriate dilution of the primary antibody, or combination of antibodies for 4-6 hours at room temperature. The primary antibodies were anti-Map2, a mouse monoclonal antibody recognizing the Map-2 a, b and c isoforms (Sigma, Catalog # M4403) at a 1/500 dilution; anti-Nestin, a rabbit polyclonal antibody (Chemicon, Catalog # AB5922) at a 1/200 dilution; anti-Oct-4, a rabbit polyclonal antibody (Santa Cruz, Catalog # sc-9081) at a 1/200 dilution; sheep anti-Tyrosine Hydroxlyase (TH) antibody (Pel-Freez, Catalog # P60101-0) at a 1/500 dilution; anti-phosphoHistoneH3, a rabbit polyclonal antibody (Upstate, Catalog, # 06-570) at a 1/400 dilution; anti-SSEA4, a mouse monoclonal antibody (Developmental Studies Hybridoma Bank, Catalog # MC-813-70) at a ⅕ dilution. The cells were then washed in wash buffer (50 mM Tris-HCL pH 7.5, and 2.5 mM NaCl) 3 times for 5 minutes each wash. The cells were then incubated for a minimum of 2 hours in secondary antibodies diluted 1:1000, followed by washing in wash buffer. The secondary antibodies were appropriate combinations of Alexa-350 (blue), -488 (green) or -568 (red) conjugated goat anti-chicken, anti-rabbit, anti-sheep or anti-mouse antibodies, all available from Molecular Probes. Some samples were stained with 5 ng/ml DAPI to detect cell nuclei, and were then washed from overnight to 2 days in a large volume of wash buffer. The slides were mounted with mounting medium and a cover slip. Slides were visualized using either a NIKON TS100 inverted microscope or a NIKON TE 2000-S inverted microscope with a Q Imaging digital camera
Essentially serum free embryoid bodies (sfEBMs) were generated as described in Example 6, and were exposed to S18 at different stages of their development in order to assess the timing of depletion of high Oct-4 expressing cells, and in order to determine when neural rosettes could be selected. The sfEBMs in suspension were treated with 10 μM S18 in 50% DMEM/F12, 50% MEDII, supplemented with 1×N2, Glutamine (20 mM), penicillin (0.5 U/ml), and streptomycin (0.5 U/ml) for varying amounts of time, and the sfEBMs were then evaluated histologically and by immunocytochemistry.
Essentially serum free embryoid bodies were derived from protease passaged cells and grown in the presence of 50% MEDII conditioned medium. The embryoid bodies were exposed to 10 μM S18 in the same medium from day 6 to 9 after derivation. At day 9 the S18 treated sfFBMs and matched control sfEBMs not exposed to S18 were fixed, embedded in plastic, cut to 3 micron sections and stained with DAPI to enable the precise determination of the proportion of the total healthy nuclei of an sfEBM that were rosette cell nuclei.

For another test, the system named is Oct-4. In words: Oct-4 immunoblotting of EB8 stage cells incubated with S18. The settings on record: EB8 stage cells incubated with 75 μM S18 for 24 hours. Format: cell-based, mouse. The protocol:
In vitro differentiating ES cells at stage EB8 were incubated for […] with 75 μM S18, or 35 μM N-acyl sphingosine or other ceramide analogs. Protein was isolated from cells incubated with S18 for 24 hours and from untreated cells, separated by SDS-PAGE, and the expression of Oct-4 was analyzed by immunoblotting.

The mark [1] stands for this setting: sfEBMs at day 14, 48 hours exposure to 10 μM S18.

`CCCCCCCC/C=C\CCCCCCCC(=O)NC(CO)CO` [S18, N-(2-hydroxy-1-(hydroxymethyl)ethyl)-oleoylamide]: in the test on sfEBMs in suspension (10 μM S18, four days), the “viable embryoid bodies derived from monolayer crater cells” value is “No viable embryoid bodies were observed”. Moreover, in the test with sfEBMs in suspension (S18 selected sfEBM (10 μM) seeded at day 21, anti-Oct-4 staining), the “regions of high Oct-4 expression (residual pluripotent cells)” value is “no regions of high Oct-4 expression could be detected”. The “mitotic activity of neural rosette precursor cells (phosphoHistone H3)” value with sfEBMs in suspension (day 28 after derivation, 8 days after withdrawal of S18) is “still mitotically active”. In the test with sfEBMs in suspension (exposure to 10 μM S18), the “presumptive dopaminergic neurons or their precursors (anti-TH staining)” value is “not ablated”. In the test on sfEBMs in suspension (setting [1]), the “apoptosis in sfEBMs” value is listed as “extensive apoptosis in the bodies” and the “morphology of rosette regions” value is “morphologically normal”. Besides, in the test with sfEBMs in suspension (sfEBMs from protease passaged cells, 10 μM S18 from day 6 to 9), the “population surviving incubation (DAPI stained sections)” value is “a very pure population of neural precursor rosette cells had survived”. Further, in the test with Oct-4, the “Oct-4 immunostaining relative to untreated control cells” value was 25% and the “decrease in Oct-4 protein levels” value came to 75%.
